This is an account of results in patent US8003660B2, “Modulators of muscarinic receptors” (Vertex Pharmaceuticals Incorporated, priority 2006, dated 2011).

Type in all cases: cell-based
Experiment [1] deals with T1, M1 muscarinic receptor (Homo sapiens, UniProt P11229).
T1 construct: expressed in transfected cells; host or cells: CHO (M1-CHO)
T1 sequence (P11229 1-460): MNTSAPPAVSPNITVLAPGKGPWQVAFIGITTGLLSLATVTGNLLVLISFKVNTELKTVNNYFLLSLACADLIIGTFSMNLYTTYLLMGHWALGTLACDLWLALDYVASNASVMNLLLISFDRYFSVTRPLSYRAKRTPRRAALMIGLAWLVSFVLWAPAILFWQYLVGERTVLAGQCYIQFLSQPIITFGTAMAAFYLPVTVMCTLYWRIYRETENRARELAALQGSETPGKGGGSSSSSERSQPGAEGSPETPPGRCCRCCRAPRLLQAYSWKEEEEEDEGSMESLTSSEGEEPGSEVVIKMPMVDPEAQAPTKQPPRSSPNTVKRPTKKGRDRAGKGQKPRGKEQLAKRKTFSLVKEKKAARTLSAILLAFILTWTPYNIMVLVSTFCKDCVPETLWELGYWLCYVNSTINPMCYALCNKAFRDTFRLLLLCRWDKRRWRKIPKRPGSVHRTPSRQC
Briefly: Functional mobilization of intracellular calcium (FLIPR) in CHO cells expressing M1. The settings on record: for EC50: CHO cells expressing M1, FLIPR calcium; for Emax: CHO, 100% = maximum response obtained with the Carbachol control, read-out: M1 Efficacy. The procedure, abridged:
(§1)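 Recombinant CHO cells loaded with Fluo-3 AM or Calcium 3 dye in pH 7.4 buffer containing 1 mM probenecid, with 0.5% final DMSO. For agonism, compound is added directly. For inhibition, it is preincubated 15 min, or co-applied, before carbachol at EC80. FLIPR fluorescence (ex 488, em 540 nm) is recorded for 60 s.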
A general note: A change in cytosolic calcium serves as a functional read-out for many receptors and channels.

The target in experiment [2] is T2, M2 muscarinic receptor (Homo sapiens, UniProt P08172).
T2 construct: expressed in transfected cells; host or cells: CHO (M2-CHO)
T2 sequence (P08172 1-466): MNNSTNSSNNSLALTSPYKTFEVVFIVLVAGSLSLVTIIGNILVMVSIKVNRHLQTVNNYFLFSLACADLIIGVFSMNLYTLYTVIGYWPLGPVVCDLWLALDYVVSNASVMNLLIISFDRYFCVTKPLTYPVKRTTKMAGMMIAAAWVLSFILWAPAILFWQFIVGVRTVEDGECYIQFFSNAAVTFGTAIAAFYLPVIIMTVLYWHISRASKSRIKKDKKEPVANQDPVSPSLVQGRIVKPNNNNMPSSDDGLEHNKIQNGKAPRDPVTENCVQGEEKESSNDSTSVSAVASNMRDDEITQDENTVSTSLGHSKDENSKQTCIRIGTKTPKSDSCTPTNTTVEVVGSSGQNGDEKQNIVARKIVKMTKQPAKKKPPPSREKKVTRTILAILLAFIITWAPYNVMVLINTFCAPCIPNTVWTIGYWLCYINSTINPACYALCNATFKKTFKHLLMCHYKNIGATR
As to the kind of experiment: Functional mobilization of intracellular calcium (FLIPR) in CHO cells expressing M2. The conditions noted are these: for EC50: CHO cells expressing M2, FLIPR calcium; for Emax: CHO, 100% = maximum response obtained with the Carbachol control, read-out: M2 Efficacy. The procedure, abridged:
as §1

In experiment [3] the target is T3, M3 muscarinic receptor (Homo sapiens, UniProt P20309).
T3 construct: expressed in transfected cells; host or cells: CHO (M3-CHO)
T3 sequence (P20309 whole entry): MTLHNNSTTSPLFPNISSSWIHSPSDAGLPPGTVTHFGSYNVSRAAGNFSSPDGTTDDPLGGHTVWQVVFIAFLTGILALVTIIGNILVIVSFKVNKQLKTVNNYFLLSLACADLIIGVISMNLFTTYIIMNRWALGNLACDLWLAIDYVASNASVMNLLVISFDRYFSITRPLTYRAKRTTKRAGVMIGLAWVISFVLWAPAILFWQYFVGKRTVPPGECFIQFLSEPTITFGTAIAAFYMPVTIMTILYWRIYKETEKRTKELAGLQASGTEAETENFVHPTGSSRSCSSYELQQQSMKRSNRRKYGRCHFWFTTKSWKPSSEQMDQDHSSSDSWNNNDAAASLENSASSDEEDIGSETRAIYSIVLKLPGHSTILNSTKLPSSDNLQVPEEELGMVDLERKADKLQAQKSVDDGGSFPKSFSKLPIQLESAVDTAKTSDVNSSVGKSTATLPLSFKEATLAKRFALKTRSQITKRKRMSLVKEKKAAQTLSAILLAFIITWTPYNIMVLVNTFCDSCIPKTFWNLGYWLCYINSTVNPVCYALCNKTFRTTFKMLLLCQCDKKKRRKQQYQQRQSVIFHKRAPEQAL
Briefly: Functional mobilization of intracellular calcium (FLIPR) in CHO cells expressing M3. The conditions noted are these: for EC50: CHO cells expressing M3, FLIPR calcium; for Emax: CHO, 100% = maximum response obtained with the Carbachol control, read-out: M3 Efficacy. In outline:
as §1

For experiment [4], the target named is T4, M4 muscarinic receptor (Homo sapiens, UniProt P08173).
T4 construct: expressed in transfected cells; host or cells: CHO (M4-CHO)
T4 sequence (P08173 1-479): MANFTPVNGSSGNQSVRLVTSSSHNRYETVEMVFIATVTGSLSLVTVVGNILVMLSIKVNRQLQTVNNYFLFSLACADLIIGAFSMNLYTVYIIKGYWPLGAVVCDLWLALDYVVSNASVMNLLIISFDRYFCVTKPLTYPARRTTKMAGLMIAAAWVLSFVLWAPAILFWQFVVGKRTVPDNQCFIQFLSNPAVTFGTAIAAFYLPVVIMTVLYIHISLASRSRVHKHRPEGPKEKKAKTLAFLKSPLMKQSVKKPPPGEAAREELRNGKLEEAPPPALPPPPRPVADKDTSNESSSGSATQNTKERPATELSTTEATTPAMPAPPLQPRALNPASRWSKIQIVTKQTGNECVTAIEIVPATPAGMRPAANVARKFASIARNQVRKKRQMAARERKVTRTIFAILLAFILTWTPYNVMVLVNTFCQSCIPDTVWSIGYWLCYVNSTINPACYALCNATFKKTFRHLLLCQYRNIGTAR
Briefly: Functional mobilization of intracellular calcium (FLIPR) in CHO cells expressing M4. The conditions noted are these: for EC50: CHO cells expressing M4, FLIPR calcium; for Emax: CHO, 100% = maximum response obtained with the Carbachol control, read-out: M4 Efficacy. In outline: as §1

In the case of `CCCN1CCC2(CC[C@H](NC(C)=O)c3ccccc32)CC1` [compound 95], the EC50 in experiment [1], in experiment [2], in experiment [3] and in experiment [4] was above 5 µM in each case. In addition, the Emax in experiment [1] was 25 to 100%; in experiment [2] it was below 25%; in experiment [3], below 25%; in experiment [4] it was 25 to 100%.

As for `CC(=O)NCCC(=O)N[C@H]1CCC2(CCN(CCC(C)(C)C)CC2)c2cc(F)ccc21` [compound 96], the half-maximal effective concentration (EC50) (in general, the concentration that produces a half-maximal response) in experiment [1] is below 2 µM; in experiment [2] it was below 2 µM; in experiment [3], above 5 µM; in experiment [4], below 2 µM. The Emax in experiment [1] is 25 to 100%; in experiment [2], 25 to 100%; in experiment [3], below 25%; in experiment [4] it was 25 to 100%.

For `CC(C)(C)CCN1CCC2(CCC(C#N)c3ccccc32)CC1` (stereo not shown) [compound 97], the concentration for a half-maximal effect (EC50) is below 2 µM in experiment [1], below 2 µM in experiment [2], above 5 µM in experiment [3] and below 2 µM in experiment [4]. For the same molecule, the Emax in experiment [1] was 25 to 100%; in experiment [2], 25 to 100%; in experiment [3], below 25%; in experiment [4], 25 to 100%.

For `Cn1cnc(C(=O)N[C@H]2CCC3(CCN(CCC(C)(C)C)CC3)c3ccccc32)c1` [compound 98], the 50% effective concentration (EC50) in experiment [1] is below 2 µM; in experiment [2], above 5 µM; in experiment [3], above 5 µM; in experiment [4], below 2 µM. Further, the Emax in experiment [1] was 25 to 100%; in experiment [2], below 25%; in experiment [3], below 25%; in experiment [4], 25 to 100%.

Turning to `CCOCC(=O)N[C@@H]1CCC2(CCN(CCC(C)(C)C)CC2)c2ccccc21` [compound 99], the concentration giving a half-maximal response (EC50) is above 5 µM in experiment [1], above 5 µM in experiment [2], above 5 µM in experiment [3] and below 2 µM in experiment [4]. Further, the Emax in experiment [1] is below 25%; in experiment [2], below 25%; in experiment [3] it was below 25%; in experiment [4], 25 to 100%.

`CCN(C(=O)CCNC(C)=O)[C@@H]1CCC2(CCN(CCC(C)(C)C)CC2)c2ccccc21` [compound 100]: the EC50 in experiment [1] was above 5 µM; in experiment [2], above 5 µM; in experiment [3], above 5 µM; in experiment [4], below 2 µM. In addition, the Emax in experiment [1] is below 25%; in experiment [2], below 25%; in experiment [3], below 25%; in experiment [4], 25 to 100%.

As for `CCN(C(=O)c1cncn1C)[C@@H]1CCC2(CCN(CCC(C)(C)C)CC2)c2ccccc21` [compound 101], the EC50 in experiment [1] was below 2 µM; in experiment [2], above 5 µM; in experiment [3], above 5 µM; in experiment [4], 2 to 5 µM. Moreover, the Emax is 25 to 100% in experiment [1], below 25% in experiment [2], below 25% in experiment [3] and 25 to 100% in experiment [4].

Take `CC(C)(C)CCN1CCC2(CC[C@H](N3C(=O)CCC3=O)c3ccccc32)CC1` [compound 102]: the 50% effective concentration (EC50) in experiment [1] was 2 to 5 µM; in experiment [2], above 5 µM; in experiment [3] it was above 5 µM; in experiment [4] it was below 2 µM. The Emax in experiment [1] was 25 to 100%; in experiment [2], below 25%; in experiment [3] it was below 25%; in experiment [4], 25 to 100%.

As to `CC(C)(C)CCN1CCC2(CC[C@H](NC(=O)C3CCC(=O)N3)c3ccc(F)cc32)CC1` (stereo partly shown) [compound 103], the half-maximal effective concentration (EC50) in experiment [1] was below 2 µM; in experiment [2], below 2 µM; in experiment [3] it was above 5 µM; in experiment [4], below 2 µM. Moreover, the Emax was 25 to 100% in experiment [1], below 25% in experiment [2], below 25% in experiment [3] and 25 to 100% in experiment [4].

As for `CC(=O)N[C@H]1CCC2(CCN(CC(C)C)CC2)c2ccccc21` [compound 104], the EC50 is 2 to 5 µM in experiment [1], above 5 µM in experiment [2], above 5 µM in experiment [3] and 2 to 5 µM in experiment [4]. Besides, the Emax in experiment [1] was 25 to 100%; in experiment [2], 25 to 100%; in experiment [3], below 25%; in experiment [4], 25 to 100%.

In the case of `COCCC(=O)N[C@@H]1CCC2(CCN(CCC(C)(C)C)CC2)c2ccccc21` [compound 105], the EC50 in experiment [1] is 2 to 5 µM; in experiment [2] it was above 5 µM; in experiment [3], above 5 µM; in experiment [4], below 2 µM. In addition, the Emax is below 25% in experiment [1], below 25% in experiment [2], below 25% in experiment [3] and 25 to 100% in experiment [4].

On to `C[C@@H](C(=O)N[C@H]1CCC2(CCN(CCC(C)(C)C)CC2)c2cc(F)ccc21)N1CCCC1=O` [compound 106], for which the concentration for a half-maximal effect (EC50) in experiment [1] was below 2 µM; in experiment [2], below 2 µM; in experiment [3] it was above 5 µM; in experiment [4], below 2 µM. Moreover, the Emax in experiment [1] is 25 to 100%; in experiment [2], 25 to 100%; in experiment [3] it was below 25%; in experiment [4] it was 25 to 100%.

In the case of `CC(=O)N1CCC[C@@H]1C(=O)N[C@@H]1CCC2(CCN(CCC(C)(C)C)CC2)c2ccccc21` [compound 107], the EC50 in experiment [1] is 2 to 5 µM; in experiment [2] it was 2 to 5 µM; in experiment [3], above 5 µM; in experiment [4], below 2 µM. In addition, the Emax in experiment [1] was 25 to 100%; in experiment [2], below 25%; in experiment [3], below 25%; in experiment [4] it was 25 to 100%.

For `CC(C)(C)CCN1CCC2(CC[C@H](NC(=O)c3cccnc3)c3ccccc32)CC1` [compound 108], the EC50 was below 2 µM in experiment [1], below 2 µM in experiment [2], above 5 µM in experiment [3] and below 2 µM in experiment [4]. Further, the Emax in experiment [1] is 25 to 100%; in experiment [2] it was below 25%; in experiment [3], below 25%; in experiment [4], 25 to 100%.

Regarding `C[C@H](C(=O)N[C@H]1CCC2(CCN(CCC(C)(C)C)CC2)c2ccccc21)N1CCCC1=O` [compound 109], the half-maximal effective concentration (EC50) was below 2 µM in experiment [1], above 5 µM in experiment [2], above 5 µM in experiment [3] and below 2 µM in experiment [4]. Besides, the Emax was 25 to 100% in experiment [1], below 25% in experiment [2], below 25% in experiment [3] and 25 to 100% in experiment [4].

Regarding `CCN(C(=O)CCC(F)(F)F)[C@H]1CCC2(CCN(CCC(C)(C)C)CC2)c2ccccc21` [compound 110], the concentration giving a half-maximal response (EC50) in experiment [1] is above 5 µM; in experiment [2], above 5 µM; in experiment [3] it was above 5 µM; in experiment [4], below 2 µM. The Emax in experiment [1] is 25 to 100%; in experiment [2] it was below 25%; in experiment [3], below 25%; in experiment [4], 25 to 100%.

With `CCN(C(=O)c1cccnc1)[C@@H]1CCC2(CCN(CCC(C)(C)C)CC2)c2ccccc21` [compound 111], the EC50 in experiment [1] is above 5 µM; in experiment [2], above 5 µM; in experiment [3], above 5 µM; in experiment [4] it was below 2 µM. Besides, the Emax is below 25% in experiment [1], below 25% in experiment [2], below 25% in experiment [3] and 25 to 100% in experiment [4].
